Experimental data from USRE37180E, “Photochemotherapeutical obstruction of newly-formed blood vessels” (Meiji Seika Kaisha, Ltd., priority 1995, dated 2001).
Structures can show the parent of a compound that is named as a salt.

What was measured:
[1] = acute toxicity tested by intravenous injection to CD-1 mice (male); details: mouse, in vivo
[2] = photo-toxicity tests; format: in vivo
[3] = tested on: choroidal vessels; format: in vivo, normal pigmented rabbits
From the text: The predetermined regions (that is, said spots) of the blood vessels to be irradiated with the laser beam had been marked preliminarily by photo-coagulation by means of an argon laser beam. Immediately after the irradiation with the laser at 664 nm, as well as one week after the irradiation and one month after the irradiation with the laser at 664 nm, the fundus of the eyes under test was examined by fluorescein angiography.
The eye so treated was subsequently observed under light microscope at the end of 2 hours after the laser irradiation.
The laser-irradiated parts of the eye so treated were subsequently observed under light microscope at the end of 1 hour after the laser irradiation.

[4] = metabolic speed and level in the blood plasma; format: in vivo
[5] = tested on: serum albumin; assay: affinity to the serum albumin; format: binding
[6] = liposolubility / penetration into normal tissues; format: physicochemical
[7] = tested on: in vivo cells; assay: transfer into the in vivo cells; details: not by diffusion
[8] = light absorption; format: physicochemical; details: can absorb well
[9] = tested on: active lesions of the neovascular tissues; assay: accumulation in neovascular tissues; details: in vivo
[10] = set-up: species or system normal pigmented rabbits; details: rabbit, in vivo
[11] = tested on: choroidal neovascularization; assay: occlusion of choroidal neovascularization upon irradiation with laser beam; format: in vivo; details: irradiation with a laser beam at 664 nm
[12] = cited from earlier work

C=Cc1c(C)c2cc3nc(c(CC(=O)N[C@@H](CC(=O)O)C(=O)O)c4[nH]c(cc5nc(cc1[nH]2)C(C)=C5CC)c(C)c4C(=O)O)[C@@H](CCC(=O)O)[C@@H]3C [mono-L-aspartyl chlorin e6 tetra-sodium salt]
LD50 [1]: 164 mg/kg | adverse side reactions such as erythema and edema [2]: does not involve adverse side reactions such as erythema and edema | obstruction of choroidal blood vessels (choriocapillaris) maintained, light microscope ([3]; 25 mg/kg i.v., laser immediately after injection, 1 hour after irradiation): the choroidal blood vessels, more particularly the choriocapillaris continued to have been obstructed | endothelial cells of the chorio-capillaris / choriocapillaris, light microscope ([3]; 25 mg/kg i.v., laser immediately after injection, 2 hours after irradiation): endothelial cells of the chorio-capillaris had been swollen and necrotized and the choriocapillaris were obstructed | extent of damages incurred in the choroidal vessels, laser one hour after versus immediately after injection ([3]; 25 mg/kg i.v., observed commonly for all the doses): the extent of damages incurred in the choroidal vessels is reduced at the laser irradiation as made one hour after the intravenous injection | degree of obstruction of choroidal vessels compared with argon laser photo-coagulation ([3]; 25 mg/kg, laser immediately after administration, one week after irradiation, light microscope): the choroidal vessels were obstructed to a substantially same degree in the former case and the latter case | obstruction in the choroidal vessels ([3]; 25, 50 and 100 mg/kg i.v., 664 nm laser immediately after injection, fluorescein angiography one week after irradiation): the obstruction took place in the choroidal vessels at all the doses | degree of the obstruction in the choroidal vessels, dose dependence ([3]; 25, 50 and 100 mg/kg i.v., laser immediately after injection, one week after irradiation): the degree of the obstruction in the choroidal vessels increased with an increased doses | level in the blood plasma ([4]; at the end of 10 hours from the administration): 1/500 | metabolic speed relative to photofrin ([4]; faster than photofrin): at least 10 times | affinity to the serum albumin [5]: has a nature of exhibiting affinity to the serum albumin | liposolubility [6]: low liposolubility | penetration and diffusion into healthy normal tissues having the barrier in vivo [6]: hard to penetrate and diffuse into the healthy normal tissues having the barrier in vivo | mode of transfer into the in vivo cells [7]: by the phagocytosis and/or pinocytosis | light absorption wavelength [8]: 664 nm | accumulation in the active lesions of the neovascular tissues [9]: can concentrate into and be accumulated well in the active lesions of the neovascular tissues | level in the blood after the administration [10]: can decrease quickly during an earlier period after the administration | metabolism after administration into a human or animal body [10]: can be metabolized well after its administration into a human or animal body | necrosis of the vascular endothelial cells and occlusion of choroidal neovascularization [11]: cause necrosis of the vascular endothelial cells and occlusion of choroidal neovascularization | uptake into and excretion from the human and animal body [12]: quickly uptaken into and excreted from the human and animal body
